Calls of active or inactive are those of the source. The calls are words filed in the database; no cut-off is given here.
What was measured:
[1] = test system: Mus musculus; assay: Antiinflammatory activity in ICR mouse assessed as inhibition of TPA-induced ear edema by measuring reduction in weight of ear punches applied topically measured 4 hrs post TPA-challenge; format: functional
[2] = test system: Mus musculus; assay: Potency index, ratio of indomethacin ED50 to test compound ED50 for antiinflammatory activity in ICR mouse assessed as inhibition of TPA-induced ear edema by measuring reduction in weight of ear punches applied topically; format: functional
[3] = test system: Mus musculus; assay: Antiinflammatory activity in TPA-induced ICR mouse ear edema model assessed as reduction in monocyte content at 3 mg/ear applied topically by giemsa staining-based microscopic method; format: functional, organism-based; details: TDE = time-dependent effect
[4] = test system: Mus musculus; assay: Antiinflammatory activity in TPA-induced ICR mouse ear edema model assessed as reduction in neutrophil content AUC at 3 mg/ear applied topically measured 4 hrs post-TPA challenge by giemsa staining-based microscopic method relative to control; format: functional; parameters: scale not given: the % may be the effect or the level left
[5] = test system: Mus musculus; assay: Antiinflammatory activity in TPA-induced ICR mouse ear edema model assessed as reduction in number of neutrophils at 3 mg/ear applied topically measured 4 hrs post-TPA challenge by giemsa staining-based microscopic method; format: functional, organism-based
[6] = test system: Mus musculus; assay: Antiinflammatory activity in ICR mouse assessed as inhibition of TPA-induced ear edema by measuring reduction in weight of ear punches applied topically measured 4 hrs post TPA-challenge relative to control; format: functional
[7] = test system: Mus musculus; assay: Antiinflammatory activity in TPA-induced ICR mouse ear edema model assessed as reduction in monocytes content AUC at 3 mg/ear applied topically measured 4 hrs post TPA-challenge giemsa staining-based microscopic method; format: functional; parameters: scale not given: the % may be the effect or the level left
[8] = test system: Mus musculus; assay: Antiinflammatory activity in TPA-induced ICR mouse ear edema model assessed as reduction in neutrophil content at 3 mg/ear applied topically by giemsa staining-based microscopic method; format: functional, organism-based; details: TDE = time-dependent effect
[9] = test system: Mus musculus; assay: Antiinflammatory activity in TPA-induced ICR mouse ear edema model assessed as reduction in monocyte content at 10 mg/ear applied topically by giemsa staining-based microscopic method; format: functional, organism-based; details: TDE = time-dependent effect
[10] = test system: Mus musculus; assay: Antiinflammatory activity in TPA-induced ICR mouse ear edema model assessed as reduction in number of neutrophils at 10 mg/ear applied topically measured 4 hrs post-TPA challenge by giemsa staining-based microscopic method; format: functional, organism-based
[11] = test system: Mus musculus; assay: Antiinflammatory activity in TPA-induced ICR mouse ear edema model assessed as reduction in monocytes content AUC at 10 mg/ear applied topically measured 4 hrs post TPA-challenge giemsa staining-based microscopic method; format: functional; parameters: scale not given: the % may be the effect or the level left
[12] = test system: Mus musculus; assay: Antiinflammatory activity in TPA-induced ICR mouse ear edema model assessed as reduction in neutrophil content at 10 mg/ear applied topically by giemsa staining-based microscopic method; format: functional, organism-based; details: TDE = time-dependent effect
[13] = test system: Mus musculus; assay: Antiinflammatory activity in TPA-induced ICR mouse ear edema model assessed as reduction in neutrophil content AUC at 10 mg/ear applied topically measured 4 hrs post-TPA challenge by giemsa staining-based microscopic method relative to control; format: functional; parameters: scale not given: the % may be the effect or the level left
[14] = test system: Mus musculus; assay: Antiinflammatory activity in TPA-induced ICR mouse ear edema model assessed as reduction in neutrophil content AUC at 1 mg/ear applied topically measured 4 hrs post-TPA challenge by giemsa staining-based microscopic method relative to control; format: functional; parameters: scale not given: the % may be the effect or the level left
[15] = test system: Mus musculus; assay: Antiinflammatory activity in TPA-induced ICR mouse ear edema model assessed as reduction in monocytes content AUC at 1 mg/ear applied topically measured 4 hrs post TPA-challenge giemsa staining-based microscopic method; format: functional; parameters: scale not given: the % may be the effect or the level left
[16] = test system: Mus musculus; assay: Antiinflammatory activity in TPA-induced ICR mouse ear edema model assessed as reduction in number of neutrophils at 1 mg/ear applied topically measured 4 hrs post-TPA challenge by giemsa staining-based microscopic method; format: functional, organism-based
[17] = test system: Mus musculus; assay: Antiinflammatory activity in ICR mouse assessed as inhibition of TPA-induced ear edema by measuring reduction in weight of ear punches up to 1.25 mg/ear applied topically measured 4 hrs post TPA-challenge relative to control; format: functional
[18] = test system: Mus musculus; assay: Antiinflammatory activity in TPA-induced ICR mouse ear edema model assessed as reduction in number of neutrophils at 5.7 mg/ear applied topically measured 4 hrs post-TPA challenge by giemsa staining-based microscopic method; format: functional, organism-based
[19] = test system: Mus musculus; assay: Antiinflammatory activity in TPA-induced ICR mouse ear edema model assessed as reduction in monocyte content at 5.7 mg/ear applied topically by giemsa staining-based microscopic method; format: functional, organism-based; details: TDE = time-dependent effect
[20] = test system: Mus musculus; assay: Antiinflammatory activity in TPA-induced ICR mouse ear edema model assessed as reduction in neutrophil content AUC at 5.7 mg/ear applied topically measured 4 hrs post-TPA challenge by giemsa staining-based microscopic method relative to control; format: functional; parameters: scale not given: the % may be the effect or the level left
[21] = test system: Mus musculus; assay: Antiinflammatory activity in TPA-induced ICR mouse ear edema model assessed as reduction in neutrophil content at 5.7 mg/ear applied topically by giemsa staining-based microscopic method; format: functional, organism-based; details: TDE = time-dependent effect
[22] = test system: Mus musculus; assay: Antiinflammatory activity in TPA-induced ICR mouse ear edema model assessed as reduction in monocytes content AUC at 5.7 mg/ear applied topically measured 4 hrs post TPA-challenge giemsa staining-based microscopic method; format: functional; parameters: scale not given: the % may be the effect or the level left

SMILES	ED50 [1]	inhibition [1]	Ratio ED50 [2]	%max [6]	also measured
COP(=O)(OC)C(C)(COC(C)=O)NCC1CCCCC1 (racemic)	0.95 to 1.05 mg	Dose-dependent effect	0.5	93%	Activity [3]: Tde; Activity [4]: 62.9%; Activity [5]: Active; Activity [7]: 18.9 - 34.1%; Activity [8]: Tde
COc1ccc(CCNC(C)(COC(C)=O)P(=O)(OC)OC)cc1OC (racemic)	0.77 to 1.29 mg	Dose-dependent effect	0.37	97%	Activity [9]: Tde; Activity [10]: Active; Activity [11]: 18.9 - 34.1%; Activity [12]: Tde; Activity [13]: 62.6%
COc1ccc2c(c1)c(CC(=O)O)c(C)n2C(=O)c1ccc(Cl)cc1 [INDOMETHACIN]	0.49 mg	Dose-dependent effect		99.3%	Activity [14]: 57.7%; Activity [15]: 64.2%; Activity [16]: Active; inhibition (INH) [17]: 14.6 - 99.3%
COP(=O)(OC)C(C)(COC(C)=O)NCc1ccccc1 (racemic)	0.68 to 1.46 mg	Dose-dependent effect	0.33	97.6%	Activity [9]: Tde; Activity [10]: Active; Activity [11]: 18.9 - 34.1%; Activity [12]: Tde; Activity [13]: 63%
COP(=O)(OC)C(C)(O)COC(C)=O (racemic)	0.1 to 10.14 mg		0.04	47.2%	
COc1ccc(CCNC(C)(CO)P(=O)(OC)OC)cc1OC (racemic)	0.99 to 1 mg	Dose-dependent effect	0.48	94.6%	
COP(=O)(OC)C(C)(COC(C)=O)N[C@@H](C)c1ccccc1 (mixture of isomers)	0.73 to 1.37 mg	Dose-dependent effect	0.67	96.1%	Activity [18]: Active; Activity [19]: Tde; Activity [20]: 46.7%; Activity [21]: Tde; Activity [22]: 18.9 - 34.1%
COP(=O)(OC)C(C)(CO)NCc1ccccc1 (racemic)	0.28 to 3.63 mg	Dose-dependent effect	0.13	81.6%	
COc1ccc(CNC(C)(COC(C)=O)P(=O)(OC)OC)cc1 (racemic)	0.58 to 1.73 mg		0.29	66.1%	
C=CCNC(C)(COC(C)=O)P(=O)(OC)OC (racemic)	0.59 to 1.68 mg	Dose-dependent effect	0.28	74.3%	
COP(=O)(OC)C(C)(CO)N[C@@H](C)c1ccccc1 (mixture of isomers)	0.95 to 1.05 mg	Dose-dependent effect	0.46	95.6%	

Reference: ChEMBL document CHEMBL4340505, “000Synthesis of new α-aminophosphonates: Evaluation as anti-inflammatory agents and QSAR studies” (2019)
